Data reported in a compilation of properties of binary mixtures (doi:10.1021/acs.jced.9b00769).

Assay: xn = mol fraction of the nth substance listed
Conditions: 100 kPa

CCCC[P+](CC)(CC)CC.N#Cc1ccc[n-]1 + OCCN(CCO)CCO
Conditions | electrical conductivity, 293.15 K [S/m] | viscosity, 293.15 K [mPa·s] | viscosity, 298.15 K [mPa·s] | viscosity, 303.15 K [mPa·s] | viscosity, 313.15 K [mPa·s]
x1 = 0.002 | 0.0007 | – | – | – | –
x1 = 0.007 | 0.0017 | – | – | – | –
x1 = 0.009 | 0.0022 | – | – | – | –
x1 = 0.018 | 0.0036 | 960 | – | 410 | 188
x1 = 0.023 | 0.0041 | – | – | – | –
x1 = 0.029 | – | – | 633 | 408 | 184
x1 = 0.047 | 0.0055 | – | – | – | –
x1 = 0.059 | 0.0059 | 1010 | 660 | 426 | 191
x1 = 0.089 | 0.0068 | 970 | 636 | 410 | 185
x1 = 0.104 | – | 940 | 614 | 397 | 177
x1 = 0.123 | 0.0077 | – | – | – | –
x1 = 0.223 | – | – | 530 | – | 155
x1 = 0.272 | 0.0115 | – | – | – | –
x1 = 0.413 | – | 680 | 439 | 284 | 136
x1 = 0.508 | – | 647 | 426 | – | 132
x1 = 0.537 | 0.0248 | – | – | – | –
x1 = 0.763 | 0.0489 | 478 | 318 | 210 | 106
x1 = 1 | 0.147 | 187 | 137 | 104 | 62

CCCCCCCCCCCC[P+](CCCC)(CCCC)CCCC.N#Cc1ccc[n-]1 + OCCN(CCO)CCO
Conditions | electrical conductivity [S/m] | viscosity [mPa·s]
293.15 K, x1 = 0.003 | 0.0006 | –
293.15 K, x1 = 0.004 | 0.0008 | –
293.15 K, x1 = 0.005 | 0.0011 | –
293.15 K, x1 = 0.007 | 0.0014 | –
293.15 K, x1 = 0.01 | 0.0019 | –
293.15 K, x1 = 0.017 | – | 980
293.15 K, x1 = 0.022 | 0.003 | –
293.15 K, x1 = 0.027 | 0.0032 | –
293.15 K, x1 = 0.042 | 0.0036 | –
293.15 K, x1 = 0.054 | 0.0038 | 1054
293.15 K, x1 = 0.075 | 0.0041 | –
293.15 K, x1 = 0.177 | 0.0038 | 1025
293.15 K, x1 = 0.244 | 0.0039 | 970
293.15 K, x1 = 0.325 | 0.0041 | 930
293.15 K, x1 = 0.431 | 0.0043 | 830
293.15 K, x1 = 0.755 | 0.0057 | 680
298.15 K, x1 = 0.017 | – | 654
298.15 K, x1 = 0.054 | – | 680
298.15 K, x1 = 0.096 | – | 690
298.15 K, x1 = 0.121 | – | 690
298.15 K, x1 = 0.177 | – | 680
298.15 K, x1 = 0.244 | – | 646
298.15 K, x1 = 0.431 | – | 569
298.15 K, x1 = 0.538 | – | 532
303.15 K, x1 = 0.035 | – | 435
303.15 K, x1 = 0.096 | – | 452
303.15 K, x1 = 0.121 | – | 450
303.15 K, x1 = 0.177 | – | 450
303.15 K, x1 = 0.244 | – | 432
303.15 K, x1 = 0.431 | – | 391
303.15 K, x1 = 0.538 | – | 370
313.15 K, x1 = 0.017 | – | 205
313.15 K, x1 = 0.035 | – | 205
313.15 K, x1 = 0.054 | – | 208
313.15 K, x1 = 0.121 | – | 216
313.15 K, x1 = 0.177 | – | 219
313.15 K, x1 = 0.244 | – | 211
313.15 K, x1 = 0.431 | – | 200
313.15 K, x1 = 0.538 | – | 194
313.15 K, x1 = 0.755 | – | 182
313.15 K, x1 = 1 | – | 166

CCCCCCCCCCCC[P+](CC)(CC)CC.N#Cc1ccc[n-]1 + OCCN(CCO)CCO
Conditions | electrical conductivity [S/m] | viscosity [mPa·s]
293.15 K, x1 = 0.003 | 0.0008 | –
293.15 K, x1 = 0.005 | 0.0012 | –
293.15 K, x1 = 0.007 | 0.0016 | –
293.15 K, x1 = 0.008 | 0.0019 | –
293.15 K, x1 = 0.013 | 0.0027 | –
293.15 K, x1 = 0.017 | 0.0033 | 920
293.15 K, x1 = 0.02 | 0.0036 | –
293.15 K, x1 = 0.025 | 0.0038 | –
293.15 K, x1 = 0.042 | 0.0051 | –
293.15 K, x1 = 0.051 | 0.0053 | 1009
293.15 K, x1 = 0.065 | 0.0056 | –
293.15 K, x1 = 0.08 | 0.0058 | –
293.15 K, x1 = 0.09 | 0.006 | –
293.15 K, x1 = 0.091 | – | 1032
293.15 K, x1 = 0.116 | 0.0062 | –
293.15 K, x1 = 0.117 | – | 1007
293.15 K, x1 = 0.145 | – | 920
293.15 K, x1 = 0.28 | – | 860
293.15 K, x1 = 0.285 | 0.0061 | –
293.15 K, x1 = 0.404 | 0.0069 | –
293.15 K, x1 = 0.512 | 0.0081 | –
293.15 K, x1 = 0.687 | – | 840
293.15 K, x1 = 0.701 | 0.0141 | –
293.15 K, x1 = 0.809 | – | 720
293.15 K, x1 = 1 | 0.0267 | 423
298.15 K, x1 = 0.017 | – | 608
298.15 K, x1 = 0.035 | – | 641
298.15 K, x1 = 0.091 | – | 680
298.15 K, x1 = 0.117 | – | 649
298.15 K, x1 = 0.145 | – | 610
298.15 K, x1 = 0.28 | – | 573
298.15 K, x1 = 0.473 | – | 583
298.15 K, x1 = 0.687 | – | 576
298.15 K, x1 = 1 | – | 310
303.15 K, x1 = 0.017 | – | 396
303.15 K, x1 = 0.051 | – | 418
303.15 K, x1 = 0.091 | – | 435
303.15 K, x1 = 0.117 | – | 423
303.15 K, x1 = 0.145 | – | 403
303.15 K, x1 = 0.207 | – | 389
303.15 K, x1 = 0.28 | – | 379
303.15 K, x1 = 0.473 | – | 395
303.15 K, x1 = 0.687 | – | 395
303.15 K, x1 = 0.809 | – | 353
303.15 K, x1 = 1 | – | 214
313.15 K, x1 = 0.017 | – | 181
313.15 K, x1 = 0.035 | – | 194
313.15 K, x1 = 0.091 | – | 198
313.15 K, x1 = 0.145 | – | 192
313.15 K, x1 = 0.28 | – | 183
313.15 K, x1 = 0.473 | – | 194
313.15 K, x1 = 0.687 | – | 199
313.15 K, x1 = 0.809 | – | 184
313.15 K, x1 = 1 | – | 114

OCCN(CCO)CCO + CCCC[P+](CC)(CC)CC.N#Cc1ccc[n-]1
x2 = 0
Conditions | viscosity [mPa·s]
293.15 K | 940
298.15 K | 611
303.15 K | 413
313.15 K | 204

OCCN(CCO)CCO + CCCCCCCCCCCC[P+](CC)(CC)CC.N#Cc1ccc[n-]1
x2 = 0
Conditions | viscosity [mPa·s]
293.15 K | 940
298.15 K | 611
303.15 K | 413
313.15 K | 204
